Biological target: T1, α1β3 GABAAR (α1His-FLAGβ3) (Homo sapiens, UniProt P14867+P28472)
T1 construct: inserted between the fourth and fifth residues of the mature peptide; photolabeling full-length heteropentameric GABAARs in native membranes; expressed in transfected cells
T1 sequence (P14867 28-456): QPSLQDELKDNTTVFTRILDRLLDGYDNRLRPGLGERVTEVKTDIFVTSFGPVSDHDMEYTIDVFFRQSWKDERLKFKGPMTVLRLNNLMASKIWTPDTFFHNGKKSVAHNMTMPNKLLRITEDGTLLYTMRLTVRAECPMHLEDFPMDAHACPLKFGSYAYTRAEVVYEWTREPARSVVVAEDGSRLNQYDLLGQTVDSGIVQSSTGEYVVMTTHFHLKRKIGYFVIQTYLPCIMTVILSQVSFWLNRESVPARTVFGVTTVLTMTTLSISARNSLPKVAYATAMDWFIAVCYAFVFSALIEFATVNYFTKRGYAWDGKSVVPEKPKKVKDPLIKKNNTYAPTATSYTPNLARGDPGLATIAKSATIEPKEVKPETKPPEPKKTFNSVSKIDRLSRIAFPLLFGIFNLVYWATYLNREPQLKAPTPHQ
T1 sequence (P28472 26-473): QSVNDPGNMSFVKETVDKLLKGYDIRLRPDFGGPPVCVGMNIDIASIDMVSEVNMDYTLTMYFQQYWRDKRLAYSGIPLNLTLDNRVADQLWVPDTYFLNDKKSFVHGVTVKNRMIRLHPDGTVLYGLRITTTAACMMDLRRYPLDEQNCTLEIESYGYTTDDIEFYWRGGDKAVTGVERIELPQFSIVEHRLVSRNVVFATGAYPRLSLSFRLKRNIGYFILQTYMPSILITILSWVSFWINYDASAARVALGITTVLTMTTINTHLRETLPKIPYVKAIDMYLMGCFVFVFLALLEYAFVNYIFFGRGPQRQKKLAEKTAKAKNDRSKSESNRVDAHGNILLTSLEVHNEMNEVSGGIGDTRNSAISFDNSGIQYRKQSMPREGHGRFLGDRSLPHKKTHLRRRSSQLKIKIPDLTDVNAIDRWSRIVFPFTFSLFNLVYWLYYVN
Assay: Neurosteroid photolabeling and competition, middle-down mass spectrometry
Format: binding
Conditions: for Prevention of KK200 photolabeling of α1N408 in the α1 intrasubunit site / Prevention of KK200 photolabeling of β3G308 in the intersubunit site: 3 μM KK200; for Photolabeling efficiency of α1 subunit TM4 (Y415, α1 intrasubunit site) / Photolabeling efficiency of β3 subunit TM4 peptide (β3 intrasubunit site): 30 μM photolabeling reagent
Experimental: The syntheses of neurosteroid photolabeling reagents (KK148, KK150, KK200, KK123) are detailed in previous reports ([Jiang et al., 2016]; [Cheng et al., 2018]). […] For the photolabeling competition experiments, 3 μM KK200 or KK123 in the presence of 30 μM competitor (3α5αP, KK148, KK150, and 3β5αP) or the same volume of ethanol was added to the membrane proteins and incubated on ice for 1 hr. The samples were then irradiated in a quartz cuvette for 5 min, by using a photoreactor emitting light at >320 nm. The membrane proteins were then collected by centrifugation at 20,000 g at 4°C for 45 min. The photolabeled membrane proteins were resuspended in lysis buffer containing 1% n-dodecyl-β-D-maltoside (DDM), 0.25% cholesteryl hemisuccinate (CHS), 50 mM Tris (pH 7.5), 150 mM NaCl, 2 mM CaCl2, 5 mM KCl, 5 mM MgCl2, 1 mM EDTA, 10% glycerol at a final concentration of 1 mg/ml. The membrane protein suspension was homogenized using a glass mortar and a Teflon pestle and incubated at 4°C overnight. The protein lysate was centrifuged at 20,000 g at 4°C for 45 min and supernatant was incubated with 0.5 ml anti-FLAG agarose (Sigma) at 4°C for 2 hr. The anti-FLAG agarose was then transferred to an empty column, followed by washing with 20 ml washing buffer (50 mM triethylammonium bicarbonate and 0.05% DDM). The GABAARs were eluted with aliquots of 200 μg/ml FLAG tag peptide and 100 μg/ml 3X FLAG (ApexBio) in the washing buffer. The pooled eluates (9 ml) containing GABAARs were concentrated to 100 μl using 100 kDa cut-off centrifugal filters.
The purified α1β3 GABAAR (100 μl) was reduced with 5 mM tris(2-carboxyethyl)phosphine for 1 hr, alkylated with 5 mM N-ethylmaleimide (NEM) for 1 hr, and quenched with 5 mM dithiothreitol (DTT) for 15 min. These three steps were done at RT. Samples were then digested with 8 μg of trypsin for 7 days at 4°C to obtain maximal recovery of TMD peptides. The digestions were terminated by adding formic acid in a final concentration of 1%, followed directly by LC-MS analysis on an Orbitrap Elite mass spectrometer. 20 μl samples were injected into a home-packed PLRP-S (Agilent, Santa Clara, CA) column (10 cm ×75 μm, 300 Å), separated with a 145 min gradient from 10% to 90% acetonitrile, and introduced to the mass spectrometer at 800 nl/min with a nanospray source. MS acquisition was set as a MS1 Orbitrap scan (resolution of 60,000) followed by top 20 MS2 Orbitrap scans (resolution of 15,000) using data-dependent acquisition, and exclusion of singly charged precursors. Fragmentation was performed using high-energy dissociation with normalized energy of 35%. Analysis of data sets was performed using Xcalibur (Thermo Fisher Scientific) to manually search for TM1, TM2, TM3 or TM4 tryptic peptides with or without neurosteroid photolabeling modifications. Photolabeling efficiency was estimated by generating extracted chromatograms of unlabeled and labeled peptides, determining the area under the curve, and calculating the abundance of labeled peptide/(unlabeled + labeled peptide). Analysis of statistical significance comparing the photolabeling efficiency of KK200 and KK123 for α1β3 GABAAR was determined using one-way ANOVA with Bonferroni's multiple comparisons test and paired t-test, respectively (Prism 6, GraphPad Software, San Diego, CA). MS2 spectra of photolabeled TMD peptides were analyzed by manual assignment of fragment ions with and without photolabeling modification. Fragment ions were accepted based on the presence of a monoisotopic mass within 20 ppm mass accuracy. In addition to manual analysis, PEAKS (Bioinformatics Solutions Inc, Waterloo, ON, Canada) database searches were performed for data sets of photolabeled α1β3 GABAAR. […]

Row | SMILES | Prevention of KK200 photolabeling of α1N408 in the α1 intrasubunit site (30 μM competitor) | Prevention of KK200 photolabeling of β3G308 in the intersubunit site (30 μM competitor) | Inhibition of KK123 photolabeling at the α1 (α1Y415) and β3 (β3Y442) intrasubunit sites (30 μM competitor, 3 μM KK123) | Photolabeling efficiency of α1 subunit TM4 (Y415, α1 intrasubunit site) [%] | Photolabeling efficiency of β3 subunit TM4 peptide (β3 intrasubunit site) [%]
1 | CC(=O)[C@H]1CC[C@H]2[C@@H]3CC[C@H]4C[C@H](O)CC[C@]4(C)[C@H]3CC[C@]12C [3α5αP, allopregnanolone] | prevented | prevented |  |  | 
2 | CC(=O)[C@H]1CC[C@H]2[C@@H]3CC[C@H]4C[C@@H](O)CC[C@]4(C)[C@H]3CC[C@]12C [3β5αP, epi-allopregnanolone] | prevented | does not bind to the intersubunit site | completely inhibited |  | 
3 | C#CCCO[C@H]1CC[C@H]2[C@@H]3CC[C@H]4CC5(CC[C@]4(C)[C@H]3CC[C@]12C)N=N5 [KK148] | prevented | prevented |  | 0.77 | 0.13
4 | C#CCCO[C@@H]1CC[C@H]2[C@@H]3CC[C@H]4CC5(CC[C@]4(C)[C@H]3CC[C@]12C)N=N5 [KK150] | prevented | prevented |  | 0.62 | 0.19
